The results in this text go back to US12594344B2, “Production of exosomes and uses thereof” (CHINA MEDICAL UNIVERSITY, priority 2021, dated 2026).

In one assay the test system is MDA-MB-231 cells. Put plainly: Cytotoxicity of exosomes loaded with miRNA and DOX. In kind it is cell-based. Particulars: MDA-MB-231, after 24 h and 48 h. How it is done:
The cell cultured on 96-well with Exo/CARExo for the collection of different time-points, the culture medium was collected and washed with PBS solution to remove any residual medium. Tetrazolium dye MTT (3-(4,5-dimethylthiazol-2-yl)-2,5-diphenyltetrazolium bromide) (Sigma-Aldrich) was mixed fresh medium with ratio of 1:9 and performed to assess for cell viability, which worked by acting on the respiratory chain. After 3 h of reaction, the MTT agent was removed and DMSO was added and left aside for 20 min to dissolve the formazan crystals and redistributed evenly into a 96-well. Absorbance was quantified by measuring at a wavelength of 570 nm to assess for cell viability.
Then, the present invention further increased the test group to six groups: Ctl, Drug, miR, CARExo, CARExo-Drug and CARExo-miR-Drug, to distinguish the validation of cancer cell killing efficacy (FIG. 10). […] Whereas CARExo or Drug only the effect was about 50%. It could be seen that the cocktail of exosomes can effectively and quickly kill cancer cells in the first time.

The next assay concerns the target T1, YAP protein (Homo sapiens, UniProt P46937).
T1 construct: endogenous in cells; host or cells: HEK293T
Kind of assay: YAP inhibitor treatment of HEK293T-laden auxetic scaffold under cyclic tensile stimulation. In kind it is cell-based. From the text:
In the present invention, hydrogels with an auxetic structure were fabricated through a template moulding process. Considering that the cell-laden hydrogels with an auxetic structure should be compatible with a tensile bioreactor, three components were used to produce the construct: a Pluronic F-127 solution, GelMa, and cell-laden FGelMa. A positive mould was designed and printed using the BioX bioprinter (Cellink, Sweden) with the Pluronic F-127 (Sigma-Aldrich) solution at a concentration of 30 wt % in distilled water. […] For the mould printing, the stereolithography (STL) model was designed and developed using SolidWorks. The STL file was then converted into a g-code file, which was used to determine the movements and printing paths of the bioprinter, using sliver software. After housing the fugitive ink in a syringe barrel equipped with a luer-locked nozzle with an inner diameter of 150 μm, the fugitive ink was deposited on a glass slide by applying a pneumatic pressure at 170 kPa to form a filament with diameter of approximately 250 μm, using a syringe moving speed of 25 mm/s. The fugitive mould of the auxetic construct was fabricated layer-by-layer (150 μm per layer) until the final thickness of the construct reached 2.1 mm. […]

T1 sequence (P46937 whole entry): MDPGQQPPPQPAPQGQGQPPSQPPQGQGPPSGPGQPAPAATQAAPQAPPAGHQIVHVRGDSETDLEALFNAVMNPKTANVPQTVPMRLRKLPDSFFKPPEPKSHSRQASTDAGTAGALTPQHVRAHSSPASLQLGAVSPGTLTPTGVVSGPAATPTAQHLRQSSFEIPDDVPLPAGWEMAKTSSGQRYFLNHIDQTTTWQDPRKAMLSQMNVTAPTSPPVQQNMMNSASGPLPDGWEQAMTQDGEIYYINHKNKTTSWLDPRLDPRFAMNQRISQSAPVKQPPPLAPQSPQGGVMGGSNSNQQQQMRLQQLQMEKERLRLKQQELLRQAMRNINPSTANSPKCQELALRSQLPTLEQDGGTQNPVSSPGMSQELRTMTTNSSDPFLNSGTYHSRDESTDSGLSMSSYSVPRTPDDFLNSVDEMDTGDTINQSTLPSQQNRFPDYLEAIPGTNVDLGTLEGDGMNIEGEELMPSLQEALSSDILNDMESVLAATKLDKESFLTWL

Take `COc1cccc2c1C(=O)c1c(O)c3c(c(O)c1C2=O)C[C@@](O)(C(=O)CO)C[C@@H]3O[C@H]1C[C@H](N)[C@H](O)[C@H](C)O1` [Drug, doxorubicin]: the cell killing effect result with MDA-MB-231 cells is on record as “about 50%”. As for Verteporfin, at YAP protein, the cell morphology result is on record as “could not self-assemble to form three-dimensional spheroids” and the “secretion of exosomes relative to the cyclic tensile stimulation group” value worked out at 5%.
